# In publication PMC10088252:
# Like-named read-outs stand apart in the source and are kept apart here.
# Protocol: Dose adjustment was allowed according to the severity of toxicity [Supplementary Table 1].
# The primary endpoints were safety, ORR and DCR assessed by investigators. […] AEs referred to treatment-emergent adverse events (TEAEs) and TRAEs were assessed by investigators. Serious adverse events (SAEs) referred to AEs meeting at least one of the following criteria: event leading to death; life-threatening event; event requiring hospitalization or extension of hospital stay; event leading to persistent or evident disability or dysfunction; event leading to congenital malformation or birth defect or event which might lead to injury or that need medical treatment to avoid the above mentioned important medical events.
smiles,measurement,setting,value
O=C(Nc1ccc(Oc2ccnc3c2CCN3)c(F)c1)c1c[nH]cc(-c2ccc(F)cc2)c1=O,"TRAE Rash maculo-papular, any grade",600 mg QD (n=10),0 n (%)
same,"TRAE Rash maculo-papular, grade 3-4",600 mg QD (n=10),0 n (%)
same,"TRAE Sinus tachycardia, any grade",600 mg QD (n=10),1 (10.0) n (%)
same,"TRAE Sinus tachycardia, grade 3-4",600 mg QD (n=10),0 n (%)
same,"TRAE Skin fissures, any grade",600 mg QD (n=10),1 (10.0) n (%)
same,"TRAE Skin fissures, grade 3-4",600 mg QD (n=10),1 (10.0) n (%)
same,"TRAE Supraventricular extrasystoles, any grade",600 mg QD (n=10),1 (10.0) n (%)
same,"TRAE Supraventricular extrasystoles, grade 3-4",600 mg QD (n=10),0 n (%)
same,"TRAE Thrombocytopenia, any grade",600 mg QD (n=10),1 (10.0) n (%)
same,"TRAE Thrombocytopenia, grade 3-4",600 mg QD (n=10),1 (10.0) n (%)
same,"TRAE Upper respiratory tract infection, any grade",600 mg QD (n=10),0 n (%)
same,"TRAE Upper respiratory tract infection, grade 3-4",600 mg QD (n=10),0 n (%)
same,"TRAE Urinary retention, any grade",600 mg QD (n=10),1 (10.0) n (%)
same,"TRAE Urinary retention, grade 3-4",600 mg QD (n=10),0 n (%)
same,"TRAE Urinary tract infection, any grade",600 mg QD (n=10),2 (20.0) n (%)
same,"TRAE Urinary tract infection, grade 3-4",600 mg QD (n=10),0 n (%)
same,"TRAE Ventricular arrhythmia, any grade",600 mg QD (n=10),1 (10.0) n (%)
same,"TRAE Ventricular arrhythmia, grade 3-4",600 mg QD (n=10),0 n (%)
same,"TRAE Ventricular extrasystoles, any grade",600 mg QD (n=10),0 n (%)
same,"TRAE Ventricular extrasystoles, grade 3-4",600 mg QD (n=10),0 n (%)
same,"TRAE Vomiting, any grade",600 mg QD (n=10),0 n (%)
same,"TRAE Vomiting, grade 3-4",600 mg QD (n=10),0 n (%)
same,"TRAE Weight loss, any grade",600 mg QD (n=10),1 (10.0) n (%)
same,"TRAE Weight loss, grade 3-4",600 mg QD (n=10),0 n (%)
same,"SAEs, patients",Total (n=38),13.2%
same,"TRAE Accessory nerve disorder, any grade",Total (n=38),1 (2.6) n (%)
same,"TRAE Accessory nerve disorder, grade 3-4",Total (n=38),0 n (%)
same,"TRAE Activated partial thromboplastin time prolonged, any grade",Total (n=38),2 (5.3) n (%)
same,"TRAE Activated partial thromboplastin time prolonged, grade 3-4",Total (n=38),0 n (%)
same,"TRAE Anaemia, any grade",Total (n=38),2 (5.3) n (%)
same,"TRAE Anaemia, grade 3-4",Total (n=38),1 (2.6) n (%)
same,"TRAE Anaesthesia oral, any grade",Total (n=38),1 (2.6) n (%)
same,"TRAE Anaesthesia oral, grade 3-4",Total (n=38),0 n (%)
same,"TRAE Arrhythmia, any grade",Total (n=38),1 (2.6) n (%)
same,"TRAE Arrhythmia, grade 3-4",Total (n=38),0 n (%)
same,"TRAE Arthralgia, any grade",Total (n=38),1 (2.6) n (%)
same,"TRAE Arthralgia, grade 3-4",Total (n=38),0 n (%)
same,"TRAE Asthenia, any grade",Total (n=38),5 (13.2) n (%)
same,"TRAE Asthenia, grade 3-4",Total (n=38),1 (2.6) n (%)
same,"TRAE Blister, any grade",Total (n=38),1 (2.6) n (%)
same,"TRAE Blister, grade 3-4",Total (n=38),0 n (%)
same,"TRAE Chest discomfort, any grade",Total (n=38),1 (2.6) n (%)
same,"TRAE Chest discomfort, grade 3-4",Total (n=38),0 n (%)
same,"TRAE Chronic kidney disease, any grade",Total (n=38),1 (2.6) n (%)
same,"TRAE Chronic kidney disease, grade 3-4",Total (n=38),0 n (%)
same,"TRAE Constipation, any grade",Total (n=38),8 (21.1) n (%)
same,"TRAE Constipation, grade 3-4",Total (n=38),0 n (%)
same,"TRAE Cough, any grade",Total (n=38),1 (2.6) n (%)
same,"TRAE Cough, grade 3-4",Total (n=38),0 n (%)
same,"TRAE Decreased Ccr, any grade",Total (n=38),6 (15.8) n (%)
same,"TRAE Decreased Ccr, grade 3-4",Total (n=38),0 n (%)
same,"TRAE Decreased appetite, any grade",Total (n=38),5 (13.2) n (%)
same,"TRAE Decreased appetite, grade 3-4",Total (n=38),1 (2.6) n (%)
same,"TRAE Diarrhoea, any grade",Total (n=38),3 (7.9) n (%)
same,"TRAE Diarrhoea, grade 3-4",Total (n=38),0 n (%)
same,"TRAE Dizziness, any grade",Total (n=38),1 (2.6) n (%)
same,"TRAE Dizziness, grade 3-4",Total (n=38),0 n (%)
same,"TRAE Dry mouth, any grade",Total (n=38),3 (7.9) n (%)
same,"TRAE Dry mouth, grade 3-4",Total (n=38),0 n (%)
same,"TRAE Dysgeusia, any grade",Total (n=38),9 (23.7) n (%)
same,"TRAE Dysgeusia, grade 3-4",Total (n=38),1 (2.6) n (%)
same,"TRAE Dyskinesia, any grade",Total (n=38),1 (2.6) n (%)
same,"TRAE Dyskinesia, grade 3-4",Total (n=38),1 (2.6) n (%)
same,"TRAE Dysphonia, any grade",Total (n=38),1 (2.6) n (%)
same,"TRAE Dysphonia, grade 3-4",Total (n=38),0 n (%)
same,"TRAE Dyspnoea, any grade",Total (n=38),1 (2.6) n (%)
same,"TRAE Dyspnoea, grade 3-4",Total (n=38),1 (2.6) n (%)
same,"TRAE Electrocardiogram QT prolonged, any grade",Total (n=38),1 (2.6) n (%)
same,"TRAE Electrocardiogram QT prolonged, grade 3-4",Total (n=38),0 n (%)
same,"TRAE Elevated ALT, any grade",Total (n=38),14 (36.8) n (%)
same,"TRAE Elevated ALT, grade 3-4",Total (n=38),0 n (%)
same,"TRAE Elevated AST, any grade",Total (n=38),11 (28.9) n (%)
same,"TRAE Elevated AST, grade 3-4",Total (n=38),0 n (%)
same,"TRAE Elevated D dimer, any grade",Total (n=38),1 (2.6) n (%)
same,"TRAE Elevated D dimer, grade 3-4",Total (n=38),0 n (%)
same,"TRAE Elevated GGT, any grade",Total (n=38),1 (2.6) n (%)
same,"TRAE Elevated GGT, grade 3-4",Total (n=38),0 n (%)
same,"TRAE Elevated LDH, any grade",Total (n=38),1 (2.6) n (%)
same,"TRAE Elevated LDH, grade 3-4",Total (n=38),0 n (%)
same,"TRAE Elevated alpha-HBDH, any grade",Total (n=38),1 (2.6) n (%)
same,"TRAE Elevated alpha-HBDH, grade 3-4",Total (n=38),0 n (%)
same,"TRAE Elevated bilirubin, any grade",Total (n=38),3 (7.9) n (%)
same,"TRAE Elevated bilirubin, grade 3-4",Total (n=38),0 n (%)
same,"TRAE Elevated blood creatinine, any grade",Total (n=38),7 (18.4) n (%)
same,"TRAE Elevated blood creatinine, grade 3-4",Total (n=38),0 n (%)
same,"TRAE Elevated creatine phosphokinase, any grade",Total (n=38),3 (7.9) n (%)
same,"TRAE Elevated creatine phosphokinase, grade 3-4",Total (n=38),0 n (%)
same,"TRAE Elevated serum urea, any grade",Total (n=38),1 (2.6) n (%)
same,"TRAE Elevated serum urea, grade 3-4",Total (n=38),0 n (%)
same,"TRAE Elevated troponin, any grade",Total (n=38),1 (2.6) n (%)
same,"TRAE Elevated troponin, grade 3-4",Total (n=38),0 n (%)
same,"TRAE Genital rash, any grade",Total (n=38),1 (2.6) n (%)
same,"TRAE Genital rash, grade 3-4",Total (n=38),0 n (%)
same,"TRAE Haematuria, any grade",Total (n=38),3 (7.9) n (%)
same,"TRAE Haematuria, grade 3-4",Total (n=38),0 n (%)
same,"TRAE Headache, any grade",Total (n=38),1 (2.6) n (%)
same,"TRAE Headache, grade 3-4",Total (n=38),0 n (%)
same,"TRAE Hyperhidrosis, any grade",Total (n=38),1 (2.6) n (%)
same,"TRAE Hyperhidrosis, grade 3-4",Total (n=38),0 n (%)
same,"TRAE Hyperlipidaemia, any grade",Total (n=38),1 (2.6) n (%)
same,"TRAE Hyperlipidaemia, grade 3-4",Total (n=38),0 n (%)
same,"TRAE Hypertension, any grade",Total (n=38),4 (10.5) n (%)
same,"TRAE Hypertension, grade 3-4",Total (n=38),1 (2.6) n (%)
same,"TRAE Hypoaesthesia oral, any grade",Total (n=38),2 (5.3) n (%)
same,"TRAE Hypoaesthesia oral, grade 3-4",Total (n=38),0 n (%)
same,"TRAE Hypocalcaemia, any grade",Total (n=38),1 (2.6) n (%)
same,"TRAE Hypocalcaemia, grade 3-4",Total (n=38),0 n (%)
same,"TRAE Hypotension, any grade",Total (n=38),1 (2.6) n (%)
same,"TRAE Hypotension, grade 3-4",Total (n=38),0 n (%)
same,"TRAE Insomnia, any grade",Total (n=38),1 (2.6) n (%)
same,"TRAE Insomnia, grade 3-4",Total (n=38),0 n (%)
same,"TRAE Leukopenia, any grade",Total (n=38),3 (7.9) n (%)
same,"TRAE Leukopenia, grade 3-4",Total (n=38),0 n (%)
same,"TRAE Nausea, any grade",Total (n=38),3 (7.9) n (%)
same,"TRAE Nausea, grade 3-4",Total (n=38),0 n (%)
same,"TRAE Neuritis, any grade",Total (n=38),2 (5.3) n (%)
same,"TRAE Neuritis, grade 3-4",Total (n=38),0 n (%)
same,"TRAE Occult blood, any grade",Total (n=38),2 (5.3) n (%)
same,"TRAE Occult blood, grade 3-4",Total (n=38),0 n (%)
same,"TRAE Oedema peripheral, any grade",Total (n=38),2 (5.3) n (%)
same,"TRAE Oedema peripheral, grade 3-4",Total (n=38),0 n (%)
same,"TRAE Onycholysis, any grade",Total (n=38),1 (2.6) n (%)
same,"TRAE Onycholysis, grade 3-4",Total (n=38),0 n (%)
same,"TRAE Oropharyngeal pain, any grade",Total (n=38),1 (2.6) n (%)
same,"TRAE Oropharyngeal pain, grade 3-4",Total (n=38),1 (2.6) n (%)
same,TRAE PPE,Total (n=38),23.7%
same,"TRAE PPE, any grade",Total (n=38),9 (23.7) n (%)
same,"TRAE PPE, grade 3-4",Total (n=38),4 (10.5) n (%)
same,"TRAE Paraesthesia, any grade",Total (n=38),1 (2.6) n (%)
same,"TRAE Paraesthesia, grade 3-4",Total (n=38),0 n (%)
same,"TRAE Proteinuria, any grade",Total (n=38),4 (10.5) n (%)
same,"TRAE Proteinuria, grade 3-4",Total (n=38),1 (2.6) n (%)
same,"TRAE Pruritus, any grade",Total (n=38),1 (2.6) n (%)
same,"TRAE Pruritus, grade 3-4",Total (n=38),0 n (%)
same,"TRAE Rash maculo-papular, any grade",Total (n=38),1 (2.6) n (%)
same,"TRAE Rash maculo-papular, grade 3-4",Total (n=38),0 n (%)
same,"TRAE Sinus tachycardia, any grade",Total (n=38),1 (2.6) n (%)
same,"TRAE Sinus tachycardia, grade 3-4",Total (n=38),0 n (%)
same,"TRAE Skin fissures, any grade",Total (n=38),1 (2.6) n (%)
same,"TRAE Skin fissures, grade 3-4",Total (n=38),1 (2.6) n (%)
same,"TRAE Supraventricular extrasystoles, any grade",Total (n=38),1 (2.6) n (%)
same,"TRAE Supraventricular extrasystoles, grade 3-4",Total (n=38),0 n (%)
same,"TRAE Thrombocytopenia, any grade",Total (n=38),3 (7.9) n (%)
same,"TRAE Thrombocytopenia, grade 3-4",Total (n=38),2 (5.3) n (%)
same,"TRAE Upper respiratory tract infection, any grade",Total (n=38),1 (2.6) n (%)
same,"TRAE Upper respiratory tract infection, grade 3-4",Total (n=38),0 n (%)
same,"TRAE Urinary retention, any grade",Total (n=38),1 (2.6) n (%)
same,"TRAE Urinary retention, grade 3-4",Total (n=38),0 n (%)
same,"TRAE Urinary tract infection, any grade",Total (n=38),3 (7.9) n (%)
same,"TRAE Urinary tract infection, grade 3-4",Total (n=38),0 n (%)
same,"TRAE Ventricular arrhythmia, any grade",Total (n=38),3 (7.9) n (%)
same,"TRAE Ventricular arrhythmia, grade 3-4",Total (n=38),0 n (%)
same,"TRAE Ventricular extrasystoles, any grade",Total (n=38),1 (2.6) n (%)
same,"TRAE Ventricular extrasystoles, grade 3-4",Total (n=38),0 n (%)
same,"TRAE Vomiting, any grade",Total (n=38),2 (5.3) n (%)
same,"TRAE Vomiting, grade 3-4",Total (n=38),0 n (%)
same,"TRAE Weight loss, any grade",Total (n=38),1 (2.6) n (%)
same,"TRAE Weight loss, grade 3-4",Total (n=38),0 n (%)
same,TRAE constipation,Total (n=38),21.1%
same,TRAE dysgeusia,Total (n=38),23.7%
same,TRAE elevated ALT,Total (n=38),36.8%
same,TRAE elevated AST,Total (n=38),28.9%
same,"grade ≥ 3 TEAEs, patients",Total (n=38),36.8%
same,grade ≥ 3 TRAE PPE,Total (n=38),10.5%
same,"grade ≥ 3 TRAEs, patients",Total (n=38),28.9%
same,patients with at least one TEAE,Total (n=38),All the 38 patients
same,treatment-related deaths,Total (n=38),No treatment-related deaths occurred
same,"TRAE leading to treatment discontinuation, patients","Total (n=38), grade 3 PPE in 400 mg BID cohort",2.6%
same,"treatment-related SAE, patients","Total (n=38), thrombocytopenia in 600 mg QD cohort",2.6%
